In patent US10118935B2, “Melampomagnolide B dimers” (priority 2014, dated 2018):
Read-outs that look alike come from different tables or passages of the source.

Legend:
K-562 = assay: NCI 60 cell line five dose, Leukemia
MOLT-4 = assay: NCI 60 cell line five dose, Leukemia
SR = assay: NCI 60 cell line five dose, Leukemia
M14 = assay: NCI 60 cell line five dose, Melanoma
SK-MEL-2 = assay: NCI 60 cell line five dose, Melanoma
SF-268 = assay: NCI 60 cell line five dose, CNS Cancer
U251 = assay: NCI 60 cell line five dose, CNS Cancer
HCC-2998 = assay: NCI 60 cell line five dose, Colon Cancer
KM12 = assay: NCI 60 cell line five dose, Colon Cancer
TK-10 = assay: NCI 60 cell line five dose, Renal Cancer

C=C1C(=O)O[C@H]2[C@H]1CC/C(COC(=O)NCCCCNC(=O)OC/C1=C/CC[C@@]3(C)O[C@H]3[C@H]3OC(=O)C(=C)[C@@H]3CC1)=C\CC[C@@]1(C)O[C@@H]21 [JVM 3-54, bis(((1aR,7aS,10aS,10bS,E)-1a-Methyl-8-methylene-9-oxo-1a,2,3,6,7,7a,8,9,10a,10b-decahydrooxireno[2′,3′:9,10]cyclodeca[1,2-b]furan-5-yl)methyl)butane-1,4-diyldicarbamate]
GI50 (HL-60(TB)): 0.256 µM | TGI (HL-60(TB)): 1.08 µM | Percent Growth (HL-60(TB); Log10 Concentration −4.0): −38% | Percent Growth (HL-60(TB); Log10 Concentration −5.0): −41% | Percent Growth (HL-60(TB); Log10 Concentration −6.0): 1% | Percent Growth (HL-60(TB); Log10 Concentration −7.0): 84% | Percent Growth (HL-60(TB); Log10 Concentration −8.0): 962% | CC50 (HL-60(TB); read-out: LC50): > 100 µM | GI50 (K-562): 0.665 µM | TGI (K-562): 10.4 µM | Percent Growth (K-562; Log10 Concentration −4.0): −46% | Percent Growth (K-562; Log10 Concentration −5.0): 1% | Percent Growth (K-562; Log10 Concentration −6.0): 40% | Percent Growth (K-562; Log10 Concentration −7.0): 96% | Percent Growth (K-562; Log10 Concentration −8.0): 101% | CC50 (K-562; read-out: LC50): > 100 µM | GI50 (MOLT-4): 1.47 µM | TGI (MOLT-4): 4.15 µM | Percent Growth (MOLT-4; Log10 Concentration −4.0): −41% | Percent Growth (MOLT-4; Log10 Concentration −5.0): −42% | Percent Growth (MOLT-4; Log10 Concentration −6.0): 68% | Percent Growth (MOLT-4; Log10 Concentration −7.0): 98% | Percent Growth (MOLT-4; Log10 Concentration −8.0): 98% | CC50 (MOLT-4; read-out: LC50): > 100 µM | GI50 (SR): 0.549 µM | TGI (SR): 3.51 µM | Percent Growth (SR; Log10 Concentration −4.0): −34% | Percent Growth (SR; Log10 Concentration −5.0): −29% | Percent Growth (SR; Log10 Concentration −6.0): 35% | Percent Growth (SR; Log10 Concentration −7.0): 94% | Percent Growth (SR; Log10 Concentration −8.0): 93% | CC50 (SR; read-out: LC50): > 100 µM | GI50 (M14): 1.97 µM | TGI (M14): 4.82 µM | Percent Growth (M14; Log10 Concentration −4.0): −84% | Percent Growth (M14; Log10 Concentration −5.0): −41% | Percent Growth (M14; Log10 Concentration −6.0): 88% | Percent Growth (M14; Log10 Concentration −7.0): 88% | Percent Growth (M14; Log10 Concentration −8.0): 94% | CC50 (M14; read-out: LC50): 16.3 µM | GI50 (SK-MEL-2): 1.77 µM | TGI (SK-MEL-2): 4.89 µM | Percent Growth (SK-MEL-2; Log10 Concentration −4.0): −67% | Percent Growth (SK-MEL-2; Log10 Concentration −5.0): −35% | Percent Growth (SK-MEL-2; Log10 Concentration −6.0): 78% | Percent Growth (SK-MEL-2; Log10 Concentration −7.0): 89% | Percent Growth (SK-MEL-2; Log10 Concentration −8.0): 101% | CC50 (SK-MEL-2; read-out: LC50): 29.3 µM | GI50 (SF-268): 3.18 µM | TGI (SF-268): 12.6 µM | Percent Growth (SF-268; Log10 Concentration −4.0): −74% | Percent Growth (SF-268; Log10 Concentration −5.0): 8% | Percent Growth (SF-268; Log10 Concentration −6.0): 92% | Percent Growth (SF-268; Log10 Concentration −7.0): 97% | Percent Growth (SF-268; Log10 Concentration −8.0): 97% | CC50 (SF-268; read-out: LC50): 51 µM | GI50 (U251): 2.94 µM | TGI (U251): 9.83 µM | Percent Growth (U251; Log10 Concentration −4.0): −95% | Percent Growth (U251; Log10 Concentration −5.0): −1% | Percent Growth (U251; Log10 Concentration −6.0): 95% | Percent Growth (U251; Log10 Concentration −7.0): 101% | Percent Growth (U251; Log10 Concentration −8.0): 99% | CC50 (U251; read-out: LC50): 33.3 µM | GI50 (HCC-2998): 2.35 µM | TGI (HCC-2998): 4.78 µM | Percent Growth (HCC-2998; Log10 Concentration −4.0): −78% | Percent Growth (HCC-2998; Log10 Concentration −5.0): −52% | Percent Growth (HCC-2998; Log10 Concentration −6.0): 110% | Percent Growth (HCC-2998; Log10 Concentration −7.0): 99% | Percent Growth (HCC-2998; Log10 Concentration −8.0): 97% | CC50 (HCC-2998; read-out: LC50): 9.73 µM | GI50 (KM12): 3.18 µM | TGI (KM12): 10.5 µM | Percent Growth (KM12; Log10 Concentration −4.0): −80% | Percent Growth (KM12; Log10 Concentration −5.0): 2% | Percent Growth (KM12; Log10 Concentration −6.0): 99% | Percent Growth (KM12; Log10 Concentration −7.0): 100% | Percent Growth (KM12; Log10 Concentration −8.0): 102% | CC50 (KM12; read-out: LC50): 43.3 µM | GI50 (TK-10): 1.61 µM | TGI (TK-10): 4.12 µM | Percent Growth (TK-10; Log10 Concentration −4.0): −99%
